Reference: patent publication EP4603105A1, “PHARMACEUTICAL COMPOSITION CONTAINING CYCLIC COMPOUND HAVING SELECTIVE KRAS INHIBITORY EFFECT AGAINST HRAS AND NRAS” (CHUGAI SEIYAKU KABUSHIKI KAISHA, priority 2022, dated 2024)
Where two headings read alike, the source gives them in different places.

Legend:
[1] = molecular target: GDP-bound KRAS wild-type protein (Homo sapiens, UniProt P01116); assay: Binding to KRAS by surface plasmon resonance (SPR), dissociation constant KD
In short: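 GDP-bound biotin-Avi RAS captured at ~100–300 RU, 30°C, pH 7.4 HBS containing 10 µM GDP, 10 mM MgCl2, 1 mM DTT, 0.01% Tween 20 and 4% DMSO. KD by 1:1 fitting.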

[2] = test system: human lung cancer strain NCI-H441; assay: NCI-H441 cell proliferation inhibitory activity (CellTiter-Glo, 4 days); type: cell-based; conditions: read-out: NCl-H441 IC50
In short: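 Signal came from […] measured per well once the reagent was added. Beforehand, cells were cultured at 37°C and 5% carbon dioxide on a compound series serially diluted in dimethyl sulfoxide.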

HRAS wild-type protein = HRAS wild-type protein (Homo sapiens, UniProt P01112); assay: Binding to HRAS by surface plasmon resonance (SPR), KD and KD ratio to KRAS
Chain of HRAS wild-type protein (P01112 whole entry): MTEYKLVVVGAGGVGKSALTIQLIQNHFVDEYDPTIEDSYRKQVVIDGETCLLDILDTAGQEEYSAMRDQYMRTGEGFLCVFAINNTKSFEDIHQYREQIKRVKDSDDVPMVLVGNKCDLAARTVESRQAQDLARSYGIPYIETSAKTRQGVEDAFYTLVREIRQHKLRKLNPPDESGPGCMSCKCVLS
In short: (§1)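 Measured at 30°C: SPR with GDP-loaded, E. coli-expressed biotin-Avi RAS captured (~100–300 RU), ascending 75 s compound injections, HBS pH 7.4 with GDP, MgCl2, 4% DMSO. KD from 1:1 fit.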

[3] = molecular target: GDP-bound NRAS wild-type protein (Homo sapiens, UniProt P01111); assay: Binding to NRAS by surface plasmon resonance (SPR), KD and KD ratio to KRAS
Chain of GDP-bound NRAS wild-type protein (P01111 whole entry): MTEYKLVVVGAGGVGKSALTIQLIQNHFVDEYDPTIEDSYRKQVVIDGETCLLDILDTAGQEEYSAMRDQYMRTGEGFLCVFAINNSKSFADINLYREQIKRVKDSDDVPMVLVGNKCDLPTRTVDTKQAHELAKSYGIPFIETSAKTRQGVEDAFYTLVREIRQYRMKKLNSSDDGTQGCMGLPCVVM
In short: as §1

[4] = Single Cycle Kinetics, 1:1 binding model
[5] = 50% proliferation inhibitory concentration, four days
[6] = ratio of KD with respect to HRAS wild-type protein to KD with respect to KRAS
[7] = ratio of KD with respect to GDP-bound NRAS wild-type protein to KD with respect to KRAS
[8] = ratio of KD for HRAS wild-type protein to KD for KRAS
[9] = ratio of KD for GDP-bound NRAS wild-type protein to KD for KRAS

Chain of GDP-bound KRAS wild-type protein (P01116 1-188 isoform P01116-2): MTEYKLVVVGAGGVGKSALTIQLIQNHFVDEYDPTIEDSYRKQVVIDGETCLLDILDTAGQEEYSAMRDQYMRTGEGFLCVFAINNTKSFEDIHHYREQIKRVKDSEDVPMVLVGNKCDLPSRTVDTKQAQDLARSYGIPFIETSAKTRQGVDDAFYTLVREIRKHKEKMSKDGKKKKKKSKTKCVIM

Row | Structure (SMILES) | Kd [1, 4] [nM] | IC50 [2, 5] [nM] | HRAS /KRAS (HRAS wild-type protein; [6]) | NRAS /KRAS [3, 7] | Kd ([1]; 1:1 binding model) [nM] | IC50 ([2]; NCI-H441 cells, 4 days) [nM] | HRAS /KRAS (HRAS wild-type protein; [8]) | NRAS /KRAS [3, 9] | Kd ([1]; Single Cycle Kinetics) [nM]
1 | CC[C@H](C)[C@@H]1NC(=O)[C@H](CC)N(C)C(=O)C[C@@H](C(=O)N2CCOCC2)N(C)C(=O)[C@H](C2CCCC2)N(C)C(=O)C2(CCC2)NC(=O)[C@@H]2CCCN2C(=O)[C@H](CCc2cc(F)c(C(F)(F)F)c(F)c2)NC(=O)CN(C)C(=O)[C@H](Cc2ccc(C(F)(F)F)cc2)N2C[C@H](C)[C@H](C)C[C@@H](C2=O)N(C)C(=O)CN(C)C1=O [PP1366] | 0.11 | 14 | B (a compound having 3 or more and less than 10 is denoted as B) | A (a compound having 10 or more and less than 20 is denoted as A) | – | – | – | – | –
2 | CCO[C@@H]1C[C@H]2C(=O)NC3(CCC3)C(=O)N(C)[C@@H](C3CCCC3)C(=O)N(C)[C@H](C(=O)N3CCOCC3)CC(=O)N(C)[C@@H](CC3CCCC3)C(=O)N[C@@H]([C@@H](C)CC)C(=O)N(C)CC(=O)N(C)[C@H]3C/C=C\CCN(C3=O)[C@@H](Cc3ccc(C(F)(F)F)cc3)C(=O)N(C)CC(=O)N[C@@H](CCc3cc(F)c(C(F)(F)F)c(F)c3)C(=O)N2C1 [PP1393] | 0.19 | 18.2 | A (a compound having 10 or more and less than 20 is denoted as A) | A (a compound having 10 or more and less than 20 is denoted as A) | – | – | – | – | –
3 | CCC[C@H]1C(=O)N[C@@H]([C@@H](C)CC)C(=O)N(C2CC2)CC(=O)N(C)[C@H]2C/C=C\CCN(C2=O)[C@@H](CC2CCC(F)(F)CC2)C(=O)N(C)CC(=O)N[C@@H](CCc2cc(F)c(C(F)(F)F)c(F)c2)C(=O)N2C[C@H](OCC)C[C@H]2C(=O)NC2(CC(C)(C)C2)C(=O)N(C)[C@@H](C2CCCC2)C(=O)N(C)[C@H](C(=O)N(C)C)CC(=O)N1C [PP2566] | – | – | – | – | 0.57 | 17.6 | B (a compound having 3 or more and less than 10 is denoted as B) | A (a compound having 10 or more and less than 20 is denoted as A) | –
4 | CCO[C@@H]1C[C@H]2C(=O)NC3(CC(C)(C)C3)C(=O)N(C)[C@@H](C3CCCC3)C(=O)N(C)[C@H](C(=O)N(C)CC)CC(=O)N(C)[C@@H](COC)C(=O)N[C@@H]([C@@H](C)CC)C(=O)N(C)CC(=O)N(C)[C@H]3C/C=C\CCN(C3=O)[C@@H](Cc3ccc(C)cc3)C(=O)N(C)CC(=O)N[C@@H](CCc3ccc(C(F)(F)F)c(Cl)c3)C(=O)N2C1 [PP2507] | – | – | – | – | 0.061 | 8.9 | A (a compound having 10 or more and less than 20 is denoted as A) | AA (a compound having 20 or more is denoted as AA) | –
5 | CCO[C@@H]1C[C@H]2C(=O)NC3(CCC3)C(=O)N(C)[C@@H](C3CCCC3)C(=O)N(C)[C@H](C(=O)N(C)C)CC(=O)N(C)[C@@H](CC(C)C)C(=O)N[C@@H]([C@@H](C)CC)C(=O)N(C)CC(=O)N(C)[C@H]3C/C=C\CCN(C3=O)[C@@H](Cc3ccc(C)cc3)C(=O)N(C)CC(=O)N[C@@H](CCc3cc(F)c(C(F)(F)F)c(F)c3)C(=O)N2C1 [PP1414] | 0.074 | 4.4 | B (a compound having 3 or more and less than 10 is denoted as B) | A (a compound having 10 or more and less than 20 is denoted as A) | – | – | – | – | –
6 | CCOC[C@H]1C(=O)N[C@@H]([C@@H](C)CC)C(=O)N(C)CC(=O)N(C)[C@H]2C/C=C\CCN(C2=O)[C@@H](CC2CCCCC2)C(=O)N(C)CC(=O)N[C@@H](CCc2ccc(C(F)(F)F)c(OC)c2)C(=O)N2C[C@H](OCC)C[C@H]2C(=O)NC2(CC(C)(C)C2)C(=O)N(C)[C@@H](C(CC)CC)C(=O)N(C)[C@H](C(=O)N(C)C)CC(=O)N1C [PP2470] | – | – | – | – | 1.8 | 118 | A (a compound having 10 or more and less than 20 is denoted as A) | A (a compound having 10 or more and less than 20 is denoted as A) | –
7 | CCCC[C@H]1C(=O)N[C@@H]([C@@H](C)CC)C(=O)N(C2CC2)CC(=O)N(C)[C@H]2C/C=C\CCN(C2=O)[C@@H](Cc2ccc(C)cc2)C(=O)N(C)CC(=O)N[C@@H](CCc2ccc(C(F)(F)F)c(OC)c2)C(=O)N2C[C@H](OCC)C[C@H]2C(=O)OC2(CCC2)C(=O)N(C)[C@@H](C2CCCC2)C(=O)N(C)[C@H](C(=O)N(C)C)CC(=O)N1C [PP3384] | – | – | – | – | – | 18.2 | B (a compound having 3 or more and less than 10 is denoted as B) | A (a compound having 10 or more and less than 20 is denoted as A) | 1.2
8 | CCC[C@H]1C(=O)N[C@@H]([C@@H](C)CC)C(=O)N(C)CC(=O)N(C)[C@H]2C/C=C\CCN(C2=O)[C@@H](Cc2ccc(C)cc2)C(=O)N(C)CC(=O)N[C@@H](CCc2ccc(C(F)(F)F)c(OC)c2)C(=O)N2CC[C@H](OC)[C@H]2C(=O)N(C)C2(CCC2)C(=O)N(C)[C@@H](C2CCCC2)C(=O)N(C)[C@H](C(=O)N(C)C)CC(=O)N1C [PP3249] | – | – | – | – | – | 4.2 | B (a compound having 3 or more and less than 10 is denoted as B) | A (a compound having 10 or more and less than 20 is denoted as A) | 0.059
9 | CCCO[C@@H]1C[C@H]2C(=O)NC3(CC(C)(C)C3)C(=O)N(C)[C@@H](C3CCCC3)C(=O)N(C)[C@H](C(=O)N(C)CC)CC(=O)N(C)[C@@H](COCC)C(=O)N[C@@H]([C@@H](C)CC)C(=O)N3C[C@@H](C)C[C@H]3C(=O)N(C)[C@H]3C/C=C\CCN(C3=O)[C@@H](Cc3ccc(C(F)(F)F)cc3)C(=O)N(C)CC(=O)N[C@@H](CCc3cc(F)c(C(F)(F)F)c(F)c3)C(=O)N2C1 [PP3472] | – | – | – | – | – | 24.3 | A (a compound having 10 or more and less than 20 is denoted as A) | A (a compound having 10 or more and less than 20 is denoted as A) | 3
10 | CCC[C@H]1C(=O)N[C@@H]([C@@H](C)CC)C(=O)N2CCC[C@H]2C(=O)N(C)[C@H]2C/C(F)=C\CCN(C2=O)[C@@H](Cc2ccc(C)cc2)C(=O)N(C)CC(=O)N[C@@H](CCc2cc(F)c(C(F)(F)F)c(F)c2)C(=O)N2C[C@H](OCC)C[C@H]2C(=O)NC2(CCC2)C(=O)N(C)[C@@H](C2CCCC2)C(=O)N(C)[C@H](C(=O)N(C)C)CC(=O)N1C [PP3520] | – | – | – | – | – | 91.9 | B (a compound having 3 or more and less than 10 is denoted as B) | B (a compound having 3 or more and less than 10 is denoted as B) | 1.2
11 | CCO[C@@H]1C[C@H]2C(=O)NC3(CC(C)(C)C3)C(=O)N(C)[C@@H](C3CCCC3)C(=O)N(C)[C@H](C(=O)N(C)C)CC(=O)N(C)[C@@H](COC)C(=O)N[C@@H]([C@@H](C)CC)C(=O)N(C3CC3)CC(=O)N(C)[C@H]3C/C=C\CCN(C3=O)[C@@H](CC3CCCCC3)C(=O)N(C)CC(=O)N[C@@H](CCc3ccc(Cl)c(Cl)c3)C(=O)N2C1 [PP2563] | – | – | – | – | 2.3 | 108 | A (a compound having 10 or more and less than 20 is denoted as A) | A (a compound having 10 or more and less than 20 is denoted as A) | –
12 | C=CC[C@H]1C(=O)N[C@@H]([C@@H](C)CC)C(=O)N(C)CC(=O)N(C)[C@H]2C/C=C\CCN(C2=O)[C@@H](CC2CCC(F)(F)CC2)C(=O)N(C)CC(=O)N[C@@H](CCc2cc(F)c(C(F)(F)F)c(F)c2)C(=O)N2C[C@H](OCC)C[C@H]2C(=O)NC2(CCC2)C(=O)N(C)[C@@H](C2CCCC2)C(=O)N(C)[C@H](C(=O)N(C)C)CC(=O)N1C [PP1454] | 0.096 | 15.2 | A (a compound having 10 or more and less than 20 is denoted as A) | A (a compound having 10 or more and less than 20 is denoted as A) | – | – | – | – | –
13 | CCC[C@H]1C(=O)N[C@@H]([C@@H](C)CC)C(=O)N(C)CC(=O)N(C)[C@H]2C/C=C\CCN(C2=O)[C@@H](Cc2ccc(C(F)(F)F)cc2)C(=O)N(C)CC(=O)N[C@@H](CCc2ccc(C(F)(F)F)c(Cl)c2)C(=O)N2CC[C@H](OC)[C@H]2C(=O)N(C)C2(CCC2)C(=O)N(C)[C@@H](C2CCCC2)C(=O)N(C)[C@H](C(=O)N(C)C)CC(=O)N1C [PP3231] | – | – | – | – | – | 7.4 | A (a compound having 10 or more and less than 20 is denoted as A) | A (a compound having 10 or more and less than 20 is denoted as A) | 0.064
14 | CCC[C@H]1C(=O)N[C@@H]([C@@H](C)CC)C(=O)N2C[C@@H](OC)C[C@H]2C(=O)N(C)[C@H]2C/C=C\CCN(C2=O)[C@@H](Cc2ccc(C)cc2)C(=O)N(C)CC(=O)N[C@@H](CCc2cc(F)c(C(F)(F)F)c(F)c2)C(=O)N2C[C@H](OCC)C[C@H]2C(=O)NC2(CC(C)(C)C2)C(=O)N(C)[C@@H](C2CCCC2)C(=O)N(C)[C@H](C(=O)N(C)C)CC(=O)N1C [PP2556] | – | – | – | – | 0.21 | 9.4 | B (a compound having 3 or more and less than 10 is denoted as B) | A (a compound having 10 or more and less than 20 is denoted as A) | –
